Measurements reported in ChEMBL document CHEMBL5442219.

Key:
Settings in all cases: Compound concentration 10 µM
[1] = target: T1, Alpha-2A adrenergic receptor (Homo sapiens) (UniProt P08913)
T1 sequence (whole entry): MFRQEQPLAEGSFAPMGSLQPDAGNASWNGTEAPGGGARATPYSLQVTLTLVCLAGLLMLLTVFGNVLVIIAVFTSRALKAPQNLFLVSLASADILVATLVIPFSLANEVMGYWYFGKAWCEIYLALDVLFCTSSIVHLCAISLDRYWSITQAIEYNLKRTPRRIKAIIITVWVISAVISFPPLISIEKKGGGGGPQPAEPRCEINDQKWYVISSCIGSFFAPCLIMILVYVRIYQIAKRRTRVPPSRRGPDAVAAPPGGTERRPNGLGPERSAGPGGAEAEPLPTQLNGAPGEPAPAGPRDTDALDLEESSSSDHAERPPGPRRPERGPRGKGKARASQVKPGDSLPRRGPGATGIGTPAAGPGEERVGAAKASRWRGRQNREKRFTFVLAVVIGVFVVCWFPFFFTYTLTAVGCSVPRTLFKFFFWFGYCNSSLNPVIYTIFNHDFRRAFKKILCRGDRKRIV

[2] = target: T2, Alpha-2C adrenergic receptor (Homo sapiens) (UniProt P18825)
T2 sequence (whole entry): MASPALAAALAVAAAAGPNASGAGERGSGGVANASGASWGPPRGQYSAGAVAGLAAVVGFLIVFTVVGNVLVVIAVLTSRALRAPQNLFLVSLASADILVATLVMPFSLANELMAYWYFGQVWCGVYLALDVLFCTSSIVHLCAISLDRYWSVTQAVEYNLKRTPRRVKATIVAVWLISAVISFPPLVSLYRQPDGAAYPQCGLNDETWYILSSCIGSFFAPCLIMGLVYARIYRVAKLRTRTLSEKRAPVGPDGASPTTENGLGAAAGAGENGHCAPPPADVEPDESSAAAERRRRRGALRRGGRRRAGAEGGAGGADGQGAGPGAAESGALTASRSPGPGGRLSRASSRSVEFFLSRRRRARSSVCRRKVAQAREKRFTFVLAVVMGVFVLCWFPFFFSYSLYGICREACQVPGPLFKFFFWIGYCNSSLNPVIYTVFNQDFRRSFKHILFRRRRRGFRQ

[3] = target: T3, Muscarinic acetylcholine receptor M4 (Homo sapiens) (UniProt P08173)
T3 sequence (whole entry): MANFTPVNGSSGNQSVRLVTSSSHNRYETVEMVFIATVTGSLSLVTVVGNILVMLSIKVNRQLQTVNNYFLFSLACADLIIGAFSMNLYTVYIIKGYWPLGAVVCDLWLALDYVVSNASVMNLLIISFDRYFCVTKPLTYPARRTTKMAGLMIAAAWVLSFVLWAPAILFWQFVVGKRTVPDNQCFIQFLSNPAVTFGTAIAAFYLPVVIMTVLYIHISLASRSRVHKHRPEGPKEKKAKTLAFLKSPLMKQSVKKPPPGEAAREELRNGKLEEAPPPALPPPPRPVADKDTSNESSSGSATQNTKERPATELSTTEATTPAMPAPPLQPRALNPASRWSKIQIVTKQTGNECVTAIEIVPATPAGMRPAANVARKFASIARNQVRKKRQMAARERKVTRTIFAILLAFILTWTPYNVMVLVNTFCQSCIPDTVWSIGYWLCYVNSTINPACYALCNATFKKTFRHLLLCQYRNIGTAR

[4] = target: D(1B) dopamine receptor (Homo sapiens) (UniProt P21918)
[5] = target: Histamine H1 receptor (Homo sapiens) (UniProt P35367)
[6] = target: T4, 5-hydroxytryptamine receptor 1A (Homo sapiens) (UniProt P08908)
T4 sequence (whole entry): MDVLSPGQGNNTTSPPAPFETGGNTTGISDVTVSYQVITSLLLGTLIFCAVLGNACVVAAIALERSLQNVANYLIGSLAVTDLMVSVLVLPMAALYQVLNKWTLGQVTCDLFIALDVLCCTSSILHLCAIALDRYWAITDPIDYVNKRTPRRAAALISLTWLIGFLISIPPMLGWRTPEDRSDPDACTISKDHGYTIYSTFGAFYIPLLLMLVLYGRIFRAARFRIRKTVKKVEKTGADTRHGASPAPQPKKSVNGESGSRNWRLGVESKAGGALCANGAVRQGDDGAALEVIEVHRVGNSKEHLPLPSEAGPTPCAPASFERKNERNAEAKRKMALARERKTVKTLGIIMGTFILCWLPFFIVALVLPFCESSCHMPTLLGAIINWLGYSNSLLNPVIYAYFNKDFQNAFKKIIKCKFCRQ

[7] = target: 5-hydroxytryptamine receptor 1B (Homo sapiens) (UniProt P28222)
[8] = target: 5-hydroxytryptamine receptor 2B (Homo sapiens) (UniProt P41595)
[9] = target: 5-hydroxytryptamine receptor 5A (Homo sapiens) (UniProt P47898)
[10] = target: 5-hydroxytryptamine receptor 7 (Homo sapiens) (UniProt P34969)
[11] = target: Sodium-dependent serotonin transporter (Homo sapiens) (UniProt P31645)
[12] = target: Beta-3 adrenergic receptor (Homo sapiens) (UniProt P13945)
[13] = target: T5, D(4) dopamine receptor (Homo sapiens) (UniProt P21917)
T5 sequence (whole entry): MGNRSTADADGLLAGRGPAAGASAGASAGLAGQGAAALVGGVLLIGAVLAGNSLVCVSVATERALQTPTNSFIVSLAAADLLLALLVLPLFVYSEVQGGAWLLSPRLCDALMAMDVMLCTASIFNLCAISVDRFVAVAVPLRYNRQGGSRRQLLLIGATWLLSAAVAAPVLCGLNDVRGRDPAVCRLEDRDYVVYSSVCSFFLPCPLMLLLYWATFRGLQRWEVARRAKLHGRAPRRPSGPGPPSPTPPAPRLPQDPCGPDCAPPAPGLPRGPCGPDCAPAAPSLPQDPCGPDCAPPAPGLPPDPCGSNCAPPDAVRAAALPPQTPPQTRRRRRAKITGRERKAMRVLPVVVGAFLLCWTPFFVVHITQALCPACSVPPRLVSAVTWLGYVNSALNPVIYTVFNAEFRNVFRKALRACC

[14] = target: Histamine H4 receptor (Homo sapiens) (UniProt Q9H3N8)
[15] = target: 5-hydroxytryptamine receptor 1D (Homo sapiens) (UniProt P28221)
[16] = target: Beta-1 adrenergic receptor (Homo sapiens) (UniProt P08588)
Beta-1 adrenergic receptor (Homo sapiens), sequence (P08588 whole entry, looked up): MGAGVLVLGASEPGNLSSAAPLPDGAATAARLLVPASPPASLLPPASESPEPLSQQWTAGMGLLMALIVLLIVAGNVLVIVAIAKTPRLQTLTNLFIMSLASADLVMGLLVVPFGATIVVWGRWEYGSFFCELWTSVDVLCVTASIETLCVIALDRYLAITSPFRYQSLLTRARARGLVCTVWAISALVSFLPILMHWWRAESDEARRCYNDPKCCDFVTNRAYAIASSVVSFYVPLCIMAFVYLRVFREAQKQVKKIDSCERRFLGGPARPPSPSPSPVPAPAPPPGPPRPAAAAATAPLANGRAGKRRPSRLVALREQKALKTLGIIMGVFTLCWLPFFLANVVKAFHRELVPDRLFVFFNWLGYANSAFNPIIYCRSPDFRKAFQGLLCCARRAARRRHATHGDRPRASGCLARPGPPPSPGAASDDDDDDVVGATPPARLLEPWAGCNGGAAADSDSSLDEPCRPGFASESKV

D(1B) dopamine receptor (Homo sapiens), sequence (P21918 whole entry): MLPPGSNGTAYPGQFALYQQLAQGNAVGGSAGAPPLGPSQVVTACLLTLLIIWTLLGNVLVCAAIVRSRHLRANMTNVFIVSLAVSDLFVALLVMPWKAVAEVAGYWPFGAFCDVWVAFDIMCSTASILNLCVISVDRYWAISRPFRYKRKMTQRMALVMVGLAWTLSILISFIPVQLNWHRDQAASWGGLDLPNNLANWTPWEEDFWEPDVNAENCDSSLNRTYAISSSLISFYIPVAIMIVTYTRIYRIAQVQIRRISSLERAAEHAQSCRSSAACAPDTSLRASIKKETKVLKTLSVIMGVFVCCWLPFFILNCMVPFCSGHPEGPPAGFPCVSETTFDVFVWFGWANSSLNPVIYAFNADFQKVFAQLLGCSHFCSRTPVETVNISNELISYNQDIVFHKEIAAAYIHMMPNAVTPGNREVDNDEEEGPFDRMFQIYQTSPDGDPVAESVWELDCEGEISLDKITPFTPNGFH
5-hydroxytryptamine receptor 1D (Homo sapiens), sequence (P28221 whole entry): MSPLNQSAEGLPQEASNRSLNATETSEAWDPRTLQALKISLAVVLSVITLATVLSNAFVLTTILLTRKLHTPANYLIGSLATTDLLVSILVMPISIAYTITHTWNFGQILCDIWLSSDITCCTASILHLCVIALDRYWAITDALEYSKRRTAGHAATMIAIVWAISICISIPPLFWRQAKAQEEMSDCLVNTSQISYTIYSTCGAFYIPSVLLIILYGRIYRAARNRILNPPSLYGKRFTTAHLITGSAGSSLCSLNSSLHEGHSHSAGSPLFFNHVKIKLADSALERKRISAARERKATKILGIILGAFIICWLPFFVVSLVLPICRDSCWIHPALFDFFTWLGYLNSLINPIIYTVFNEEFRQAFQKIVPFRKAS
5-hydroxytryptamine receptor 5A (Homo sapiens), sequence (P47898 whole entry): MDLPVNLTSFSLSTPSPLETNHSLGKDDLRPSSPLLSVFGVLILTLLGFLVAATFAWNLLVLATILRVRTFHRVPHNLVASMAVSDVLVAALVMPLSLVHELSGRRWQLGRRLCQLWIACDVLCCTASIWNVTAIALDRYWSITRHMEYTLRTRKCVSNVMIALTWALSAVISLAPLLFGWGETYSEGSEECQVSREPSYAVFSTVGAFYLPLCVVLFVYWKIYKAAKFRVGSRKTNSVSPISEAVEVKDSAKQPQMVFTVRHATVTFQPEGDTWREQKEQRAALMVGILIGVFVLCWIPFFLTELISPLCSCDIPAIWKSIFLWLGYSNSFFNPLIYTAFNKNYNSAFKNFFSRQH
Histamine H4 receptor (Homo sapiens), sequence (Q9H3N8 whole entry): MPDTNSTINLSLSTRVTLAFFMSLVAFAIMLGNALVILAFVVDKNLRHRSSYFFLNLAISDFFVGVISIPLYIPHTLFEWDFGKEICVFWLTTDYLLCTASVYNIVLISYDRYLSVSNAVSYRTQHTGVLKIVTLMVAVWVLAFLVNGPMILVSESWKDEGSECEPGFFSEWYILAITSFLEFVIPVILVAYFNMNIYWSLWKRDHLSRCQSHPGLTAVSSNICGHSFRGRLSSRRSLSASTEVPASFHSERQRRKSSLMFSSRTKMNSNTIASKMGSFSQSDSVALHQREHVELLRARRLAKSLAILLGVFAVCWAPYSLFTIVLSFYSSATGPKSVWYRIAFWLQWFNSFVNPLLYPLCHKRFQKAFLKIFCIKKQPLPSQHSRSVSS
5-hydroxytryptamine receptor 7 (Homo sapiens), sequence (P34969 whole entry): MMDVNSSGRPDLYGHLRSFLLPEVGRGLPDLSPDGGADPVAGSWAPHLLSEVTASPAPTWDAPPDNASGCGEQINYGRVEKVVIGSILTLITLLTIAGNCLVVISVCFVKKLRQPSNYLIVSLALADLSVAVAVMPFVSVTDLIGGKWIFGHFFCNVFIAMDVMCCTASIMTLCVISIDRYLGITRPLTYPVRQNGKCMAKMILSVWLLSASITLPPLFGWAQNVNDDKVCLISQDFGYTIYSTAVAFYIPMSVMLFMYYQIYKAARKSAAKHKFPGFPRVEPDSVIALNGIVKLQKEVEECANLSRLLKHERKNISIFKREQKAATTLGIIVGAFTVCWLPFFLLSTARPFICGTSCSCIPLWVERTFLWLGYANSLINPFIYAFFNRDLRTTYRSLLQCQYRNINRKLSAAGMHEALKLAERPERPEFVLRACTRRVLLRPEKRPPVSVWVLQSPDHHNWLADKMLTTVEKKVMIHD
Sodium-dependent serotonin transporter (Homo sapiens), sequence (P31645 whole entry, looked up): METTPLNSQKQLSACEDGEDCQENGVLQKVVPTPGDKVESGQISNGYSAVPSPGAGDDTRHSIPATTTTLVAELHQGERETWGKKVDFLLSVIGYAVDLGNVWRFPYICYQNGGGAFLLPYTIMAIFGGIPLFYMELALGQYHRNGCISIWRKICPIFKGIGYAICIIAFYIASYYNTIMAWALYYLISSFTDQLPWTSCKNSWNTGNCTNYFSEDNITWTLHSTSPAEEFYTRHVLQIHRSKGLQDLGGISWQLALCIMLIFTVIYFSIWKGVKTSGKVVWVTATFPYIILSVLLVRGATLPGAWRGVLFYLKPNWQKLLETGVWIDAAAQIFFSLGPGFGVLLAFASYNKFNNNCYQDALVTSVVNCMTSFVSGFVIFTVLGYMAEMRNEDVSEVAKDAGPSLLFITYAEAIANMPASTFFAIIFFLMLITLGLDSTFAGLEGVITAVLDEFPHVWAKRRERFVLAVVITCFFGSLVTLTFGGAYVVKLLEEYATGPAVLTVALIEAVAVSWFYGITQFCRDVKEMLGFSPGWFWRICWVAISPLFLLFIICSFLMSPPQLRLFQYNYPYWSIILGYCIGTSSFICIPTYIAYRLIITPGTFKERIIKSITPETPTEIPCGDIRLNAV
Histamine H1 receptor (Homo sapiens), sequence (P35367 whole entry): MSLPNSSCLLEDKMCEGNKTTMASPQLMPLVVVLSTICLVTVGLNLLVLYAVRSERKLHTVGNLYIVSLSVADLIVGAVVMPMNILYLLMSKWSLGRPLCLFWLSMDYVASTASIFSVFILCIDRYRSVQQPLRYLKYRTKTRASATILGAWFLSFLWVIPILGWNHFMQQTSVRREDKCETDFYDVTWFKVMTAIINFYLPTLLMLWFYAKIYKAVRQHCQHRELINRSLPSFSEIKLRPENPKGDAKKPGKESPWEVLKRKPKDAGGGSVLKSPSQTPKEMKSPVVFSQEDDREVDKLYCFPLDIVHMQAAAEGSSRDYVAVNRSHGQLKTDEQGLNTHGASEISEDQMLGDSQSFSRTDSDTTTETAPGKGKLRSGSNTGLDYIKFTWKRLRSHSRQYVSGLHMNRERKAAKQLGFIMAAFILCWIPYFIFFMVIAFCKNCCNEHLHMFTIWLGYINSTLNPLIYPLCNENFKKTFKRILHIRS
5-hydroxytryptamine receptor 1B (Homo sapiens), sequence (P28222 whole entry): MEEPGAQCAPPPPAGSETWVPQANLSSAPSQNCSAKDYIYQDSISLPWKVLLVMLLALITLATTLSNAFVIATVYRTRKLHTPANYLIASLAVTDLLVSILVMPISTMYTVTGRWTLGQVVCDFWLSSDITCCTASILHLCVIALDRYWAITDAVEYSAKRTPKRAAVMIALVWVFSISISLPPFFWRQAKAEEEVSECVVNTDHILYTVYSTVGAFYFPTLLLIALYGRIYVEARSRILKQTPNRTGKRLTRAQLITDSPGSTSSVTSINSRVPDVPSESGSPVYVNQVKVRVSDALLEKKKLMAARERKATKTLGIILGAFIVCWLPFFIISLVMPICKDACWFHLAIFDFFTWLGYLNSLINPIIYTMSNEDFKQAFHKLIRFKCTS
Beta-3 adrenergic receptor (Homo sapiens), sequence (P13945 whole entry, looked up): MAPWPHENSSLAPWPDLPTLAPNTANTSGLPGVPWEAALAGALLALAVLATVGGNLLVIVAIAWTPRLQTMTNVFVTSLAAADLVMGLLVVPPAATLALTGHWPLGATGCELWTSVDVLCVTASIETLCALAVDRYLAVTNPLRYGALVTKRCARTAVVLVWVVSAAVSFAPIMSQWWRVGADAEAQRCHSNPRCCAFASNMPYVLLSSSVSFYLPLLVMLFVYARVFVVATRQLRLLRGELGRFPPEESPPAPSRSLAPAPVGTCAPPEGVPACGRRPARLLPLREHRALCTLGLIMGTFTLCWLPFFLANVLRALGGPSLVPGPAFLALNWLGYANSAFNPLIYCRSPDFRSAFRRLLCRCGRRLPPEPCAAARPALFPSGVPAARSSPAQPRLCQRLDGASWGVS
5-hydroxytryptamine receptor 2B (Homo sapiens), sequence (P41595 whole entry): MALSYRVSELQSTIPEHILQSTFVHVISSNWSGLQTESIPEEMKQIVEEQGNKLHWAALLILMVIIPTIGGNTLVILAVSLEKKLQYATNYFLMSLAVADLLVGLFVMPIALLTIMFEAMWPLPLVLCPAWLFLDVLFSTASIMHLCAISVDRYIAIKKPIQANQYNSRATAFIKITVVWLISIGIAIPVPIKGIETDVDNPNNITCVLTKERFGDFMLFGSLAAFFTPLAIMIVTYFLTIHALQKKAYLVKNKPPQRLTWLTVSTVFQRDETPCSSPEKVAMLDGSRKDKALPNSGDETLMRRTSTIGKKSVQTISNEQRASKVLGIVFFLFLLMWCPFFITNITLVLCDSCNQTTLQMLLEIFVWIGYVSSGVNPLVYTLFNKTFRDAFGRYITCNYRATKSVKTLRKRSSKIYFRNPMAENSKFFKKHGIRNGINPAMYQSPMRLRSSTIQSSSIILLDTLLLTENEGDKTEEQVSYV

Compound | inhibition [1] [%] | inhibition [2] [%] | inhibition [3] [%] | inhibition [4] [%] | inhibition [5] [%] | inhibition [6] [%] | inhibition [7] [%] | inhibition [8] [%] | inhibition [9] [%] | inhibition [10] [%] | inhibition [11] [%] | inhibition [12] [%] | inhibition [13] [%] | inhibition [14] [%] | inhibition [15] [%] | inhibition [16] [%]
Cc1cc(C(=O)N2Cc3cnn(C)c3Nc3ccccc32)ccc1CNC(=O)N1CCC[C@H]1C(=S)N1CCCN(C)CC1 | 13.1 | -5.77 | 63 | 11 | 24.4 | -3.18 | 20.7 | 18.3 | 35 | 0.75 | -2.9 | -2.29 |  |  |  | 
COc1cc(-n2cnc3cc(-c4ccc(Cl)cc4)sc3c2=O)ccc1OCCN1CCCC1 | 70.6 | 71.9 | 73.8 | 27.2 | 42.2 | 8.71 | 42.5 | 82.7 | 85.3 | 16.4 | 85.8 | 43.7 | 32.4 | 58.1 | 56.6 | 
O=c1ccn([C@@H]2O[C@H](COP(=O)(O)OP(=O)(O)O)[C@@H](O)[C@H]2O)c(=O)[nH]1 |  | -6.08 | 9.94 | -4.32 | 34.8 | 5.47 | 1.75 | 0.47 |  |  | 21.1 | 15.3 |  | 7.98 | -5.04 | 
N#Cc1cccc(C(=O)Nc2cc(-c3ccccc3)nn2-c2ccccc2)c1 | -0.39 |  | -7.29 | 0.95 | -6.18 | 14.8 | 23.3 | 2.3 | 1.34 |  | 6.36 | -5.54 | 4.16 |  |  | 
Cc1csc2c(N[C@@H](C)CN3CCN(S(=O)(=O)c4ccc(Cl)c(Cl)c4)CC3)ncnc12 | -8.93 | 14.6 |  | 5.96 | 20.4 | 17 | -1.11 | 32.3 |  |  | 44.9 | 60.6 | 19.2 | 9.69 |  | 26.2
COc1ccc(S(=O)(=O)c2cc(OC)ccc2S(=O)(=O)c2ccc([C@H](C)NS(C)(=O)=O)cc2)cc1 | -4.09 | 7.85 | -3.37 | 14.2 | -5.89 |  | -1.73 | 23.7 | 6.79 |  | -7.38 | 1.41 | 58.7 |  |  | 
C[C@@H](NCCCc1cccc(C(F)(F)F)c1)c1cccc2ccccc12 | 27.9 | 77.9 | -2.86 | -9.65 | 12.7 | 87.7 | 27.5 | 96.3 | 81.9 | 51.6 | 62.7 | 48 | 48 | 14 | 61.5 | 
CCOC(=O)c1c(C)[nH]c2ccc3c(c12)CN1CCc2cc(OC)ccc2C1O3 (configuration not stated) | 86.7 | 95 | 92.3 |  | 24.9 |  | 54 | 67.6 | 31 | 9.23 | 6.67 | 6.3 | -5.53 | 29.1 | 14.9 | 
C[C@H](CO)Nc1nc(SCc2cccc(Cl)c2F)nc2[nH]c(=O)sc12 |  |  | -0.1 | -1.9 | 19 | 6.98 |  | -6.11 | 7.09 | -7.53 | 1.74 | -1.24 |  |  |  | 
CCCCCNC(=N)N/N=C/c1c[nH]c2ccc(OC)cc12 | 77.7 | 94.1 | 0.53 | 54.4 | 31.1 | 101 | 96.3 | 100 | 97.6 | 93.6 | 57.7 | 89.7 | 87.3 | 27.9 | 76.3 | 
C[C@@H](NCCc1ccc(O)cc1)[C@@H](O)c1ccc(O)cc1 (relative stereo) | -0.38 | 23.6 | 33 |  | 24.2 | -2.23 | 2.73 | 34.1 |  |  | 52.3 | 56.6 | -1.86 | 5.86 |  | 13.4
C[C@H](NC[C@H](O)CP(=O)(O)CC1CCCCC1)c1ccc(Cl)c(Cl)c1 |  | -5.96 | -3.27 |  | 9.98 | -7.25 |  | 0.95 | -8.92 |  | -2.56 | 38.3 | 13.4 | 1.86 |  | 
CCCCCCCCCCCCCCCCOC[C@H](COP(=O)([O-])OCC[N+](C)(C)C)OC(C)=O |  | 3.24 | -0.21 | 13.6 |  | 2.85 | 13.9 |  | 17.5 | -1.59 | 0.76 | 28.1 | 16.4 |  | 68.2 | 
